# “And” between values parts separate entries of the source, which are not always exact repeats. Equal values may be shown once. The source made the active and inactive calls.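 Rule for the calls: active = compounds giving half or more protection of infected cells from virus-caused growth loss, again on retest; inactive = the rest.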 Where a SMILES comes first, the peptide text is derived from it. [ ]: non-standard residue; d: D form. The star is where a group is joined. Iva = CC[C](C)(N)C(=O)O; Boc = CC(C)(C)OC(=O)*; X8 = C1CCC(=NO*)C1
# Test system: CEM cells HIV-1 protection, formazan growth assay
# Assay: NCI AIDS Antiviral Assay
# Settings: for IC50: measured here: growth of uninfected CEM cells
# Outline: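 Steps: treat uninfected and HIV-1-infected human CEM cells at five drug levels; quantify growth by soluble formazan; retest any compound reaching 50% protection; classify actives from the retest.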
SMILES,outcome,EC50 [µM],IC50
COC1OC(COCc2ccc(Cl)cc2)C(OCc2ccc(Cl)cc2)C1O (stereo not given),inactive,–,–
[N-]=[N+]=C1C(=O)C2CC3CC1CC2C3 (stereo not given),–,> 204,> 204 µM
CC(=O)O[C@H]1CC[C@@]2(C)C(=CC[C@H]3C4=CC=C(C(C)=O)[C@@]4(C)CCC32)C1 (stereo not given in full),inactive,–,–
N#Cc1cccc(CSc2ncnc3nc[nH]c23)c1,–,> 200,81.3 µM
CC1(C)CC(=O)c2c(nc3c(ccc4ccccc43)c2-c2ccc(NC(=O)CCC(=O)Nc3ccc(-c4c5c(nc6c4ccc4ccccc46)CC(C)(C)CC5=O)cc3)cc2)C1,–,> 100,> 100 µM
[Zn+2].c1ccc(-c2c3nc(c(-c4ccccc4)c4[n-]c(c(-c5ccccc5)c5nc(c(-c6ccccc6)c6[n-]c2c2ccccc62)-c2ccccc2-5)c2ccccc42)-c2ccccc2-3)cc1,–,> 50.1,> 50.1 µM
O=[N+]([O-])c1cc(Cl)ccc1S(=O)(=O)c1ccc(Cl)cc1[N+](=O)[O-],inactive,–,–
NC(=S)N/N=C1\CCCc2ccccc21,–,> 162,81.3 µM
Cc1cc(=O)n2c(nc3cc(Cl)ccc32)s1,–,> 28.8,> 28.8 µM
O=C(c1ccco1)N1CCCN(C(=O)c2ccco2)C1=S,–,> 200,28.2 µM
COC(=O)CSc1cc(Cl)c(C)cc1S(=O)(=O)Nc1n[nH]c(N)n1,–,> 200,> 200 µM
COc1c(O)c2c3c(cc(C)cc3c1C(C)C)OC2,–,> 28.2,> 28.2 µM
COc1cc2c(c([N+](=O)[O-])c1)NC(=O)CCS2,inactive,–,–
COc1ccc(/C=c2/sc3n(c2=O)NC(c2ccc(Cl)cc2)NN=3)cc1 (stereo not given),inactive,–,–
O=c1c2c(-c3ccccc3)onc2n(-c2ccccc2)c(=O)n1-c1ccccc1,–,> 200,10.5 µM
O=C(O)c1cccc(S(=O)(=O)NN2C(=O)CSC2c2c(O)ccc3ccccc23)c1 (stereo not given),–,> 200,29.5 µM
Cc1cccc2c1c(=O)c1c(O)cc3c(c1n2C)C=CC(C)(C)O3,–,32.4,> 200 µM
O=S(=O)(SCCO)c1ccccc1,–,> 813,57.5 µM
CC(C)(C)OC(=O)NC(Cc1ccc(OCc2ccccc2)cc1)C(=O)NC(COCc1ccccc1)C(=O)Oc1c(Cl)c(Cl)c(Cl)c(Cl)c1Cl (stereo not given),–,> 100,44.7 µM
O=C1C(c2ccccc2)=C(c2ccccc2)[C@H](c2ccccc2)[C@]1(Cc1nnn(-c2ccc([N+](=O)[O-])cc2)c1N1CCOCC1)c1ccccc1,inactive,–,–
CC1(C)OC(=O)N(c2ccccc2)C12C=Cc1cc([N+](=O)[O-])cc([N+](=O)[O-])c1O2 (stereo not given),–,> 200,117 µM
CC(=O)c1ccc(NC(=O)C(=O)CC(=O)c2sc(-n3nc(-c4ccccc4)cc3-c3ccccc3)nc2C)cc1,–,> 155,> 155 µM

SMILES,outcome,EC50 [µM],IC50
Cc1ccc(S(=O)(=O)N/N=C2/CC3CCC2C3)cc1 (stereo not given),–,> 200,> 200 µM
O=C1N(Cc2ccccc2)C2CSCC2N1Cc1ccccc1 (stereo not given),–,> 200,87.1 µM
CCC(C)(NC(=O)C(C)NC(=O)OC(C)(C)C)C(=O)NC(C)C(=O)NC(C)(CC)C(=O)ON=C1CCCC1 (stereo not given) (Boc-A[Iva]A[Iva]-X8; configuration not given here),–,> 200,83.2 µM
CCCC(C)C(=Nc1ccc(Cl)c(Cl)c1)N(C)C (stereo not given),–,> 200,28.2 µM
Cc1[nH]c2nccn2c(=O)c1CCCl,–,> 200,11.5 µM
C=C1CC(C)(COc2ccc3ccc(=O)oc3c2)OC1=O (stereo not given),–,> 20,0.275 µM
CCCCOC(=O)CC(C(=O)OCCCC)C(C(=O)OCCCC)P(=O)(OCCCC)OCCCC (stereo not given),–,> 26.3,17.4 µM
O=c1nc(-c2ccccc2)c2c3c(cccn13)CCC2,inactive,–,–
O=C1OC(=O)c2c(O)cc(O)c(=O)cc21,–,> 331,209 µM
Cc1nc(C2CCC3C4CCC5=CC(=O)CCC5(C)C4CCC23C)co1 (stereo not given),inactive,–,–
COc1ccc(Nc2cnc3cc(N)ccc3n2)cc1OC,–,> 603,42.7 µM
COCCN(C(=O)c1ccccc1)C1CCC(=O)c2[nH]c3ccccc3c21 (stereo not given),–,> 200,3.63 µM
CN(C)c1ccc(/C=N/NC(=S)Nc2ccccc2)cc1,–,> 200,> 200 µM
NCCCNCCCCN(CCCN)/[N+]([O-])=N\O,–,> 6030,145 µM
CN1C(=O)C2C=CC1C1CCC2N(C)C1=O (stereo not given),inactive,–,–
O=C(Nc1ccc(S(=O)(=O)c2ccc(NC(=O)c3ccc(N=Nc4cc(S(=O)(=O)O)c5cccnc5c4O)cc3S(=O)(=O)O)cc2)cc1)c1ccc(N=Nc2cc(S(=O)(=O)O)c3cccnc3c2O)cc1S(=O)(=O)O,–,3.8,93.3 µM
O=C(Sc1c(-c2ccccc2)c(=O)n(-c2ccccc2)c(=S)n1-c1ccccc1)c1ccc(Cl)cc1,–,> 200,19.5 µM
N#Cc1c(N2CCCC2)[nH]c(=O)n(Cc2ccccc2)c1=S,–,> 200,115 µM
C[As+](C)(C)CC1OC(OCC(O)COS(=O)(=O)[O-])C(O)C1O (stereo not given),inactive,–,–
CC(=O)N1CCN(C23OC4(N5CCN(C(C)=O)CC5)C5C6CC(C7C6C4C72)C53)CC1 (stereo not given),–,> 200,> 200 µM
Cc1cccnc1CC(O)c1ccccc1 (stereo not given),–,> 200,107 µM
CCO/C=C/c1cc2c(c3c1-c1c(cc(OC)c(OC)c1OC)C3=O)OCO2,–,> 6.46,> 6.46 µM

SMILES,outcome,EC50 [µM],IC50
CCOC(=O)c1c(OC)cc2n(c1=O)Cc1cc3ccccc3nc1-2,–,> 10,> 10 µM
N#CC(N)(C(=O)C(=O)NCCCNC(=O)C(=O)C(N)(C#N)c1ccc(Cl)cc1)c1ccc(Cl)cc1 (stereo not given),–,> 174,> 174 µM
C[Si](C)(C)/C=C/CN1C(=O)CCC1O (stereo not given),inactive,–,–
O=C1CCC2c3ccccc3NCN12 (stereo not given),inactive,–,–
CC(O)C1(CNc2cc(Cl)nc(N)n2)CC(CCc2ccccc2)C1 (stereo not given),–,> 20,7.76 µM
Cc1ccc(C2SCC(=O)N2NC(=O)c2ccncc2)s1 (stereo not given),–,> 200,> 200 µM
CC(=O)Oc1cc2c(c3ncccc13)OC(C)(C)C2,–,> 200,11 µM
CC(=O)C(=Cc1ccc(F)cc1)C(C)=O,–,> 871,38 µM
NC(=O)/N=N/C(N)=O,–,105,372 µM
COc1ccc(NC2Oc3cc4c(cc3C(c3cc(OC)c(O)c(OC)c3)C2C)OCO4)cc1 (stereo not given),–,> 200,3.63 µM
CCOP(N)(=O)c1ccccc1 (stereo not given),–,> 200,> 200 µM
CCOC(=O)C1=CC(C(=O)OCC)C2C=CC1N2C(=O)OC (stereo not given),inactive,–,–
O=C(/C=C/c1ccsc1)c1ccc(Cl)cc1,–,> 200,3.31 µM
Cc1cc(=O)[nH]c(NN2C(Cl)C(=O)C2c2ccc(Cl)cc2)n1 (stereo not given),–,> 55,4.68 µM
Cc1cc(S(=O)(=O)Nc2nc(N)nc(N3CCOCC3)n2)c(S)cc1Cl,–,61.7,> 200 µM
CC(=O)N(C(C)=O)c1ncc(-n2nc(-c3ccccc3)cc2-c2ccccc2)c(-c2ccccc2)n1,–,> 200,115 µM
COc1ccccc1/C=C/C(=O)C(C)(C)C,–,> 120,69.2 µM
O=C1c2ccccc2CC1(Br)C(Br)c1ccccc1 (stereo not given),–,> 200,10.7 µM and 10 µM
Clc1cc2ncn(C3CCCCO3)c2cc1Cl (stereo not given),–,> 200,45.7 µM
COC1[C@@H](OC(C)=O)[C@@H](NC(=O)C(Cl)(Cl)Cl)C(I)[C@@H](N2C(=O)c3ccccc3C2=O)[C@H]1OC (stereo not given in full),–,> 200,–
O=C(O)CCCCCNC(=O)CCC(CN(CC(=O)OCc1ccccc1)CC(=O)OCc1ccccc1)N(CC(=O)OCc1ccccc1)CC(=O)OCc1ccccc1 (stereo not given),inactive,–,–
CCOC(=O)C1(Cc2c[nH]c3ccccc23)C(O)CCCN1C(C)=O (stereo not given),–,> 200,155 µM

SMILES,outcome,EC50 [µM],IC50
Cc1cccc(C)c1NC(=O)CCC(=O)NC(N)=S,–,> 339,> 339 µM
C1CC2=C(C1)[Se]C(=C1Sc3nsnc3S1)[Se]2,–,> 200,195 µM
COC(=O)C(C)(C)C(OP1(=S)N(C)CCN1C)=C(C)C,–,> 155,> 155 µM
N#CC(C#N)=Cc1cccc(F)c1,–,> 209,42.7 µM
Cc1cccc(O)c1-c1nnc(CCCCCCCCc2nnc(-c3c(C)cccc3O)n2N)n1N,–,> 200,2.95 µM
COc1ccc(NC2=CC(C)(C(=O)O)OC2=O)cc1 (stereo not given),–,> 200,> 200 µM
CSc1nncc2[nH]cnc12,–,> 200,> 200 µM
O=c1c2cc([N+](=O)[O-])ccc2n(Cc2ccccc2)n1Cc1ccccc1,–,> 200,13.2 µM
CCOC(=O)c1c(NS(=O)(=O)c2ccccc2)sc2c1CCCC2,inactive,–,–
O=C1CCC(=O)N2c3ccccc3-c3ccccc3N12,–,> 191,> 191 µM
O=C1C(=O)N(c2nccs2)C(=O)C(=O)C1c1nc2ccccc2s1,–,> 100,> 100 µM
Cc1cc(S(=O)(=O)Nc2nc3ccccc3c(=O)n2N)c(S)cc1Cl,–,40.7,77.6 µM
COC(=O)CCC(=O)NC1C2CC3CC(C2)CC1C3 (stereo not given),–,> 135,> 135 µM
Cc1cc(C)c2cc(N)c(Cl)nc2n1,–,> 200,145 µM
CCN(CCCl)c1cc(CN(C)C)cc(NC(=O)c2ccc(C(=O)Nc3cc(CN(C)C)cc(N(CC)CCCl)c3)cc2)c1,–,> 2,0.000631 µM
O=C(c1ccco1)N(C(=S)N1CCN(c2ccccn2)CC1)C1CCCCC1,–,> 46.8,35.5 µM
CCC(C)NC(=O)/C(=C\c1ccccc1O)NC(=O)c1ccccc1 (stereo not given),–,> 200,> 200 µM
COc1ccc(-c2cc(-c3ccccc3)c(C#N)c(=O)[nH]2)cc1,–,> 61.7,> 61.7 µM
CCOC(=O)C1=C(Nc2cccc3ccccc23)OC/C1=N\NC(=O)c1ccccc1O,–,> 60.3,17.4 µM
O=C(CN(C(=O)OC12CC3CC(CC(C3)C1)C2)C(=O)OC12CC3CC(CC(C3)C1)C2)Oc1ccc([N+](=O)[O-])cc1,–,> 200,9.77 µM
O=C1CSc2ccncc2N1,–,> 1510,> 1510 µM
Cc1cc(-c2ccco2)oc(=O)c1NC(=O)c1cnccn1,–,> 200,> 200 µM

# Reference: PubChem BioAssay AID179 (DTP/NCI, 2004)
